The values below come from publication PMC11302837, “Efficacy of BRAF/MEK-inhibitor therapy for epithelioid glioblastoma with a novel BRAFV600 mutation” (Acta Neuropathologica Communications, 2024).

A short description of series [1]: Concentration of BRAF/MEK inhibitors in patient CSF by LC-MS/MS. Format: in vivo, human. Particulars: for CSF concentration: CSF via EVD; for Kp: human, CSF/serum, oral. The method, then:
(§1) Determination of BRAF/MEK inhibitors concentration in plasma and CSF of patients by liquid chromatography–tandem mass spectrometry
(§2) Native CSF samples were used with a standard addition method for quantification. A volume of 20 µl was always injected into the Ultimate 3000 HPLC system from Thermo Scientific system coupled to an API4000 tandem mass spectrometer (ABSciex, Darmstadt, Germany). The BRAF and MEK inhibitors encorafenib, binimetinib, dabrafenib and trametinib were separated by reversed phase chromatography with a Synergi 4 μm Hydro-RP 80 A, 150 × 3 mm column (Phenomenex, Torrance, USA).
(§3) The temperature of column was constantly at 40 °C. Determination of the analytes was performed using the multiple reaction monitoring mode with nitrogen as collision gas. For positive ionization, a capillary voltage of 4000 V (positive ion mode) was used. Quantification was performed by the peak area method, and a weighted (1/x) regression of first order yielded the concentrations.
(§4) Moreover, comprehensive analyses of the patients’ CSF and plasma using liquid chromatography-tandem mass spectrometry were performed to determine the concentrations of various MAPKi two, four, and five days after regimen modification, i.e. five, seven, and eight days following initiation of the targeted therapy. There was a clear accumulation of all MAPKi in the patient’s plasma (Table 2). The concentrations determined reside within the therapeutic range of the maximum and minimum plasma concentrations published (Table 2).

The nature of series [2]: Concentration of BRAF/MEK inhibitors in patient serum/plasma by LC-MS/MS. Format: in vivo, human. The note with it: encorafenib/binimetinib given day 1-3 then discontinued, dabrafenib/trametinib from day 4. The method, then: as §1
Sample preparation of plasma and CSF samples was different. Twenty microliters of plasma were diluted with 180 µL of water and mixed with 200 µL formic acid (1%). An automated solid phase extraction with an ASPEC XL (Gilson, Middleton, USA) and Oasis HLB (Waters, Milford, USA) cartridges were used. The cartridges were conditioned, loaded, washed and finally eluted with 1 mL methanol. The SPE extracts were evaporated to dryness and reconstituted with 200 µL. For quantification, 10-point external calibration curves in blank plasma at the range from 1.95 to 1000 µg/L for all four substances were freshly prepared and measured in parallel.
as §2, §3, §4

On the set-up of series [3]: method as in earlier work. Particulars: serum of patients; ref EMA product information sheet, Delord et al., 2017 [29], Sullivan et al., 2020 [30]; cited from earlier work.
Series [4] is described as follows: Tolerability of oral regimen in the patient. Format: in vivo, human. The note with it: oral hard capsules and tablets; quantity and size. The procedure:
Based on the promising results of the mutational and IHC analyses, a targeted therapy with the BRAF inhibitor, encorafenib and the MEK inhibitor, binimetinib was initiated. The dosage mirrored that of MM with 450 mg of encorafenib (i.e. 6 × 75 mg) administrated daily, and 45 mg of binimetinib (i.e. 3 × 15 mg), administrated twice daily. […] Consequently, after three days, the regimen was modified.

[5] abbreviates: day 5 after treatment initiation.
[6] abbreviates: day 7 after treatment initiation.
[7] abbreviates: day 8 after treatment initiation.

As for `Cn1cnc2c(F)c(Nc3ccc(Br)cc3F)c(C(=O)NOCCO)cc21` [Binimetinib, binimetinib], the CSF concentration in series [1] (setting [5]) is 10.3 ng/mL; in series [1] (setting [6]), 5.3 ng/mL; in series [1] (setting [7]), 5.0 ng/mL. Further, the values for the Kp in series [1] (setting [5]), in series [1] (setting [6]) and in series [1] (setting [7]) were 0.107, 0.277 and 0.362, respectively. Further, the values for the Serum concentration in series [2] (setting [5]), in series [2] (setting [6]) and in series [2] (setting [7]) were 96.5 ng/mL, 19.1 ng/mL and 13.8 ng/mL, respectively. The “C max (maximum plasma concentration)” value in series [3] is 654 ng/mL. The “C min (minimum plasma concentration)” value in series [3] is 51.4 ng/mL. Further, in series [4], the “Tolerability by the patient” value was “poorly tolerated”.

Take `CC(C)(C)c1nc(-c2cccc(NS(=O)(=O)c3c(F)cccc3F)c2F)c(-c2ccnc(N)n2)s1` [Dabrafenib, dabrafenib]: the CSF concentration is 5.4 ng/mL in series [1] (setting [5]), 6.1 ng/mL in series [1] (setting [6]) and 1.5 ng/mL in series [1] (setting [7]). For the same molecule, the values for the partition ratio (Kp) in series [1] (setting [5]), in series [1] (setting [6]) and in series [1] (setting [7]) were 0.017, 0.032 and 0.016, respectively. Moreover, the Serum concentration was 322.9 ng/mL in series [2] (setting [5]), 188.0 ng/mL in series [2] (setting [6]) and 94.6 ng/mL in series [2] (setting [7]). For the same molecule, the “C max (maximum plasma concentration)” value in series [3] is 1478 ng/mL. Moreover, the “C min (minimum plasma concentration)” value in series [3] is 26 ng/mL. Moreover, in series [4], the “Tolerability by the patient” value is “better tolerated”.

Regarding `COC(=O)N[C@@H](C)CNc1nccc(-c2cn(C(C)C)nc2-c2cc(Cl)cc(NS(C)(=O)=O)c2F)n1` [Encorafenib, encorafenib], the values for the CSF concentration in series [1] (setting [5]), in series [1] (setting [6]) and in series [1] (setting [7]) were 2.4 ng/mL, 1.1 ng/mL and 1.1 ng/mL, respectively. Moreover, the results for the Kp in series [1] (setting [5]), in series [1] (setting [6]) and in series [1] (setting [7]) were 0.178, 0.193 and 0.18, respectively. In addition, the figures for the Serum concentration in series [2] (setting [5]), in series [2] (setting [6]) and in series [2] (setting [7]) were 13.5 ng/mL, 5.7 ng/mL and 6.1 ng/mL, respectively. In addition, the “C max (maximum plasma concentration)” value in series [3] was 3800 ng/mL. Besides, the “C min (minimum plasma concentration)” value in series [3] was 13.9 ng/mL. In addition, the “Tolerability by the patient” value in series [4] was “poorly tolerated”.

Turning to `CC(=O)Nc1cccc(-n2c(=O)n(C3CC3)c(=O)c3c(Nc4ccc(I)cc4F)n(C)c(=O)c(C)c32)c1` [Trametinib, trametinib], the CSF concentration in series [1] (setting [5]) amounted to 0.0 ng/mL; in series [1] (setting [6]), 0.3 ng/mL; in series [1] (setting [7]), 0.4 ng/mL. In addition, the partition ratio (Kp) came out at 0 in series [1] (setting [5]), 0.039 in series [1] (setting [6]) and 0.043 in series [1] (setting [7]). Moreover, the values for the Serum concentration in series [2] (setting [5]), in series [2] (setting [6]) and in series [2] (setting [7]) were 8.8 ng/mL, 7.7 ng/mL and 9.2 ng/mL, respectively. For the same molecule, in series [3], the “C max (maximum plasma concentration)” value was 22.2 ng/mL. The “C min (minimum plasma concentration)” value in series [3] was 12.1 ng/mL. The “Tolerability by the patient” value in series [4] is “better tolerated”.
